Holding throughout (type): cell-based, human
The subject of assay [1] is iPSC-derived cardiomyocytes. The assay is described as follows: Spontaneous beating rate of cardiomyocytes. The protocol:
The BJRiPS cell line was used to generate preliminary data. BJRiPS cells were differentiated into cardiomyocytes according to previously published protocols (6). After the onset of beating (around day 10), cardiomyocytes were treated with vehicle (DMSO) or different concentrations of rapamycin, Torin1, or Torin2 for different time periods. Beating rate was counted manually. Some cells were harvested after 5-7 days of treatment for flow cytometry analysis. Other cells were harvested after 7 days of treatment for qPCR.

Assay [2] deals with iPSC-derived cardiomyocytes. The assay is described as follows: Seahorse Mito Stress Test and Glycolysis Stress Test. The protocol:
The Seahorse XFe96 Analyzer (Agilent) was used to assess metabolic activity of differentiated cardiomyocytes. Seahorse XFe96 cell culture microplates were coated with Geltrex (1:100 dilution in DMEM:F12). Cardiomyocytes were differentiated as described above then treated with DMSO or Torin1 (200 nM) starting at approximately two days after onset of beating for one week (˜days 9-16 of differentiation for most batches). After treatment, all cells were changed back into RPMI/B27/insulin media until assay preparation (performed at or before day 35 of differentiation). One day prior to assay, cardiomyocytes were dissociated with 0.1% trypsin-EDTA for 5 minutes then neutralized with RPMI/B27/insulin+10% fetal bovine serum (FBS) and plated at a density of 20,000-30,000 cells per well. Cardiomyocytes were maintained in serum-containing medium overnight to facilitate cell adhesion. One hour prior to the assay, the plates were changed to Seahorse assay media (XF Base Medium supplemented with 25 mM glucose, 1 mM sodium pyruvate, and 1 mM GlutaMAX), then incubated at 37 degrees C. in a CO2-free incubator with Seahorse assay media. […] Following measurement of the oxygen consumption rate (OCR) and extracellular acidification rate (ECAR) in response to serial injections of the stress test kit compounds, final cell density was determined using a CyQUANT assay (Thermo Fisher Scientific) to account for cell loss during washes. Cardiomyocytes not used for the Seahorse assay but at a similar day of differentiation were used to create a standard curve for the CyQUANT assay to quantify absolute cell number in order to account for cell loss during washing/mixing steps. OCR values were normalized to absolute cell number determined by the CyQUANT assay. […] Baseline OCR values were calculated by averaging the first three OCR measurements (0-12 minutes) prior to injection of compounds, maximal OCR values were calculated by subtracting the average non-mitochondrial OCR values (OCR following rotenone/[…]) from the OCR values after the injection with the uncoupler FCCP, and respiratory reserve capacity values were calculated by subtracting baseline OCR values from OCR values after addition of FCCP. For the Glycolysis Stress Test, the glycolysis ECAR was calculated by subtracting the average non-glycolytic acidification values (after 2-DG) from the values after glucose administration, the glycolytic capacity was calculated by subtracting the non-glycolytic acidification ECAR values from ECAR values after addition of oligomycin, and the glycolytic reserve was calculated by subtracting the ECAR values after addition of glucose from the ECAR values after addition of oligomycin, according to the manufacturer's instructions.

Assay [3] has as its system iPSC-derived cardiomyocytes. The assay is described as follows: Calcium transients (Fluo-4 AM) analysis with Vala Kinetic Image Cytometer. As to conditions: Torin1 treatment, FIG. 14. The protocol:
To perform calcium transients analysis, 50 ul of 10 ug/ml Hoeschst 33258 and 5 μM Fluo-4 AM was added to each well of a 96 well plate and incubated for 10 minutes at 37 degrees. Media was replaced with RPMI without phenol red supplemented with 1:100 Oxyfluor and 10 uM sodium lactate. Isoproterenol (1 μM) was added to the media for isoproterenol experiments. Pacing protocol was 5 seconds delay without pacing followed by 5 seconds pacing at 1 Hz and 5 seconds imaging without pacing. Imaging was performed using the Vala Kinetic Image Cytometer at 30 fps with 33.30 ms exposure at 14.25 intensity. Stimulation pulse was 5 ms with 15V voltage. Data was collected by CyteSeer analysis program.

Assay [4] has as its system iPSC-derived cardiomyocytes. The assay is described as follows: Immunocytochemistry, sarcomere length. As to conditions: versus control, BJRiPS-CMs, FIG. 2H. The protocol: Cells were dissociated from 12 well plates after differentiation with 0.1% trypsin-EDTA and replated into Geltrex-coated 4-chamber microscope slides. Cells were fixed in 4% paraformaldehyde then permeabilized with 0.5% Triton X-100. After blocking with 5% BSA, cells were incubated with primary antibodies (Table 2) for 30 minutes at room temperature followed by incubation with the secondary antibody (Table 2) for 45 minutes at room temperature in the dark. After washing with phosphate buffered saline (PBS), Vectashield mounting agent with DAPI (for slides) or DAPI (for plates) was applied and cells were visualized with a confocal microscope (Zeiss LSM 700). Muscular thin films (MTFs) were stained in a similar manner except DAPI (1 μg/ml) was applied for 5 minutes before rinsing and transferring MTFs into PBS until imaging.

On to `CCC(=O)N1CCN(c2ccc(-n3c(=O)ccc4cnc5ccc(-c6cnc7ccccc7c6)cc5c43)cc2C(F)(F)F)CC1` [Torin1], for which the “spontaneous rate of contraction” value in assay [1] (Example 1, FIG. 4C) is given as “decrease”. Further, in assay [1] (Torin1 10, 50, 200 nM, Torin2 200 nM, from day 11 for 4-5 days, FIG. 29), the “beating rate of cardiomyocytes” value is “decreased the beating rate”. The “beating rates at 1 week” value in assay [1] (dose-dependent, BJRiPS-CMs, FIG. 29) is recorded as “significantly decreased beating rates”. The “normalized maximal OCR” value in assay [2] (Torin1 200 nM 7 days, BJRiPS-CMs, FIG. 3B) is “significant increase”. Besides, the “ECAR from non-glycolytic acidification” value in assay [2] (Torin1 200 nM 7 days, FIG. 12C) is “decrease in ECAR from non-glycolytic acidification”. The “extracellular acidification rate (ECAR)” value in assay [2] (Torin1 200 nM 7 days, FIGS. 12A-12B) is given as “trend toward decreased”. Also, the “maximal OCR” value in assay [2] (Torin1 7 days, Gibco iPSC-derived cardiomyocytes) is listed as “significantly increases the maximal OCR”. Moreover, the “calcium peak rise time, peak decay time and FWHM time” value in assay [3] is listed as “significant decreases”. In addition, the sarcomere length entry in assay [4] is “no differences”.

The record behind these values is US11850266B2, “Cardiomyocytes and compositions and methods for producing the same” (President and Fellows of Harvard College, priority 2019, dated 2023).
